Reference: patent publication US4210581A, “Organic compounds” (Sandoz Ltd., priority 1975, dated 1980)

How the values were obtained:
[1] = Solubility at room temperature; format: physicochemical
[2] = tested on: Freund adjuvant arthritis swellings; assay: Freund adjuvant arthritis latent period test; format: in vivo; settings: rats, p.o., about 1 to about 10 mg/kg
[3] = tested on: oxazolone skin hypersensitivity swelling; assay: Oxazolone skin hypersensitivity reaction; format: in vivo; settings: mice, doses of 70 to 200 mg/kg
[4] = tested on: antibodies formed against sheep erythrocytes; assay: Hemagglutination test (HAT); format: in vivo; settings: mice, 100 to 200 mg/kg per os
Protocol: (ii) in the hemagglutination test (HAT) in mice a stimulation of the antibodies formed against sheep erythrocytes is obtained at a dose of from 100 to 200 mg/kg per os. animal body weight;

[5] = tested on: paralysis induced by experimentally induced nerve tissue damages; assay: Experimental allergic encephalomyelitis (EAE) test; format: in vivo; settings: rats, between 50 and 100 mg/kg/day
[6] = tested on: skin grafts in H-2 histoincompatible mice; assay: Skin transplantation (allograft) test; format: in vivo; settings: 100 to 200 mg/kg per os
[7] = tested on: hemolytic plaque-forming cells; assay: Jerne test (local hemolysis in gel); format: in vivo; settings: mice, 50 to 200 mg/kg per os
From the text: (i) in the Jerne test the effect of the substance on local hemolysis in gel is observed.

Aspergillus Niger = assay: Activity against Aspergillus Niger; format: cell-based
From the text: Cyclosporin C may be isolated by chromatography as a compound active against Aspergillus Niger and having greater polarity than Cyclosporins A and B (designated S7481/F-1 and S7481/F-2 in the above mentioned D.O.S.).

| Compound | solubility in organic solvents ([1]; benzene, dichloromethane, chloroform, ethyl acetate, acetone, ethanol and methanol) | solubility in water ([1]; water) | inhibition of swellings [2] | inhibition of swelling [3] | stimulation of the antibodies formed against sheep erythrocytes [4] | incidence of paralysis [5] | prolongation in the period of survival of skin grafts [6] | stimulation of hemolytic plaque-forming cells (immunoglobulin M and G2a antibodies) [7] | activity against Aspergillus Niger (Aspergillus Niger) |
| --- | --- | --- | --- | --- | --- | --- | --- | --- | --- |
| dihydrocyclosporin C | easily soluble | difficulty soluble | inhibition of swellings | significant and pronounced inhibition | stimulation | reduced significantly | significant prolongation | significant stimulation |  |
| C/C=C/C[C@@H](C)[C@@H](O)[C@H]1C(=O)N[C@@H]([C@@H](C)O)C(=O)N(C)CC(=O)N(C)[C@@H](CC(C)C)C(=O)N[C@@H](C(C)C)C(=O)N(C)[C@@H](CC(C)C)C(=O)N[C@@H](C)C(=O)N[C@H](C)C(=O)N(C)[C@@H](CC(C)C)C(=O)N(C)[C@@H](CC(C)C)C(=O)N(C)[C@@H](C(C)C)C(=O)N1C [Cyclosporin C, cyclosporin C] |  |  |  |  |  |  |  |  | active |
